Source: patent US20250115597A1, “TYK2 INHIBITORS AND COMPOSITIONS AND METHODS THEREOF” (LYNK PHARMACEUTICALS CO. LTD., priority 2021, published 2025)

Target: T1, Ba/F3-FL-TYK2-P760L cells (Homo sapiens, UniProt P29597, P760L, cells depend on it)
T1 construct: BaF3-FL-T2P760L (nM)
Assay: Anti-proliferative assay, Ba/F3-FL-TYK2-P760L cells (Cell-Titer Glo)
Type: cell-based
Conditions: 72 h, read-out: BaF3-FL-T2P760L IC50
Procedure: Anti-Proliferative Assay Dimerization domain of Tel protein fused with JAK kinase domain was permanently transduced into Ba/F3 cells, whose proliferation is dependent on JAK activity in the absence of IL-3 induction. These engineered Ba/F3 cells (Ba/F3-FL-TYK2-[…], Ba/F3-TEL-TYK2 and Ba/F3-TEL-JAK2) were used to monitor JAK inhibitory activities of the compounds in the cellular. […] Cells were seeded at 2000/well of white flat bottom 96-well plates. The well containing medium only was used as background control. After 24 h growth, cells were treated with compounds. The test compounds were dissolved in DMSO to a stock concentration of 20 mM. 3-fold serially diluted compounds for 9 concentrations with top concentration of 20 μM was added into the each well. […] The cells continued to grow at 37° C. in 5% CO2 for 72 h after compound treatment. The viability was measured by cellular ATP determination using the Cell-Titer Glo luciferase reagent (Promega). The Luminescence value was recorded by a multi-label reader Envision (PerkinElmer).

T1 sequence (P29597 whole entry P760L): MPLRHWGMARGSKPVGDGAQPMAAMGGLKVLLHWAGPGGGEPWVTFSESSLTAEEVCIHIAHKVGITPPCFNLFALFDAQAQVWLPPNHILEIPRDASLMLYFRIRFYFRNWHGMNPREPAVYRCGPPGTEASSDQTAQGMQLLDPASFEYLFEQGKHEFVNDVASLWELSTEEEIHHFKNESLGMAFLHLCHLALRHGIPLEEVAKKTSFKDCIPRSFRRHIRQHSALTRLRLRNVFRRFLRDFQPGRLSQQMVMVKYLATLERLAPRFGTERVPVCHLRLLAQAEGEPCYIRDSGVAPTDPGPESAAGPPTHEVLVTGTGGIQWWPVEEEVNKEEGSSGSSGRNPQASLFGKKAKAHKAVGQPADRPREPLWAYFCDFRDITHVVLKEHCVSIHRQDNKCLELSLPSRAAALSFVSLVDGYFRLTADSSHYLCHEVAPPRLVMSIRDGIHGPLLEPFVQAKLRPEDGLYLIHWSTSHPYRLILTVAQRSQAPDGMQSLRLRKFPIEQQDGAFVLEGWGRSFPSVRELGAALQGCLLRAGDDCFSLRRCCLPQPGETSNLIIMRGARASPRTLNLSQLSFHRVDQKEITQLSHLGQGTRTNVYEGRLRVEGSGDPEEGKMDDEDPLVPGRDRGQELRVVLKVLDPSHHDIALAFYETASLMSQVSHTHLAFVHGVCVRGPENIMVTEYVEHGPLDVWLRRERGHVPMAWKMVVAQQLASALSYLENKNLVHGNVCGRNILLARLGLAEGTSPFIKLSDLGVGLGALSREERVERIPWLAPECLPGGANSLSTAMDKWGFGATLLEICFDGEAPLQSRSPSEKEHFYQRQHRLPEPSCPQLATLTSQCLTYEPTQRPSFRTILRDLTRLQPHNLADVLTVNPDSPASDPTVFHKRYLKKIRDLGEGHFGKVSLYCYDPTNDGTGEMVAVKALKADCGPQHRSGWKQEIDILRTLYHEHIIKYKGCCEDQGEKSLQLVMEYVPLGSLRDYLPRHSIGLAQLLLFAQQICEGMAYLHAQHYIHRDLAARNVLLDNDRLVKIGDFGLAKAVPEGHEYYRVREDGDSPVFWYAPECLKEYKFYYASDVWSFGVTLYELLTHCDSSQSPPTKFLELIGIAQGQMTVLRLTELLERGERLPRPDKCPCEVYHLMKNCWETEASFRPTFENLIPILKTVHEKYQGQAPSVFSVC

Structure (SMILES) | GI50 [nM]
[2H]C([2H])([2H])NC(=O)c1cnc(Nc2cccc(C(F)(F)F)n2)nc1Nc1cccc(-c2ncn(C)n2)c1OC [Example 62, 4-((2-Methoxy-3-(1-methyl-1H-1,2,4-triazol-3-yl)phenyl)amino)-N-(methyl-d3)-2-((6-(trifluoromethyl)pyridin-2-yl)amino)pyrimidine-5-carboxamide] | 1180
CNC(=O)c1cnc(NC(=O)C2CC2)cc1Nc1ccc2nn3c(c2c1OC)CCC3 [Example 156, 6-(Cyclopropanecarboxamido)-4-((9-methoxy-2,3-dihydro-1H-pyrrolo[1,2-b]indazol-8-yl)amino)-N-methylnicotinamide] | 2900
[2H]C([2H])([2H])NC(=O)c1cnc(NC(=O)C2CC2)cc1Nc1ccc2cnn(C3CCOCC3)c2c1OC [Example 127, 6-(Cyclopropanecarboxamido)-4-((7-methoxy-1-(tetrahydro-2H-pyran-4-yl)-1H-indazol-6-yl)amino)-N-(methyl-d3)nicotinamide] | 378
[2H]C([2H])([2H])N1Cc2nc(NC(=O)C3CC3)cc(Nc3ccc4cnn(CC)c4c3OC)c2C1=O [Example 210, N-(4-((1-ethyl-7-methoxy-1H-indazol-6-yl)amino)-6-(methyl-d3)-5-oxo-6,7-dihydro-5H-pyrrolo[3,4-b]pyridin-2-yl)cyclopropanecarboxamide] | > 5000
CCN1C(=O)C(F)(F)c2ccc(Nc3cc(NC(=O)C4CC4)ncc3C(=O)NC)c(OC)c21 [Example 204, 6-(Cyclopropanecarboxamido)-4-((1-ethyl-3,3-difluoro-7-methoxy-2-oxoindolin-6-yl)amino)-N-methylnicotinamide] | 327
CNC(=O)c1cnc(NC(=O)C2CC2)cc1Nc1ccc2nc3n(c2c1OC)CCC3 [Example 248, 6-(Cyclopropanecarboxamido)-4-((8-methoxy-2,3-dihydro-1H-benzo[d]pyrrolo[1,2-a]imidazol-7-yl)amino)-N-methylnicotinamide] | 1420
CNC(=O)c1cnc(Nc2ccc(F)cn2)cc1Nc1cccc(C2(F)CC2)c1OC [Example 56, 4-((3-(1-Fluorocyclopropyl)-2-methoxyphenyl)amino)-6-((5-fluoropyridin-2-yl)amino)-N-methylnicotinamide] | 285
[2H]C([2H])([2H])NC(=O)c1cnc(NC(=O)C2CC2)cc1Nc1cn(C)c2ccn(CC(=O)OCC)c(=O)c12 [Example 117, Ethyl 2-(3-((2-(cyclopropanecarboxamido)-5-((methyl-d3)carbamoyl)pyridin-4-yl)amino)-1-methyl-4-oxo-1,4-dihydro-5H-pyrrolo[3,2-c]pyridin-5-yl)acetate] | 249
COC(=O)c1cnc(NC(=O)C2CC2)cc1Nc1cnc2ccn(CC(F)(F)F)c(=O)n12 [Example 48, Methyl 6-(cyclopropanecarboxamido)-4-((5-oxo-6-(2,2,2-trifluoroethyl)-5,6-dihydroimidazo[1,2-c]pyrimidin-3-yl)amino)nicotinate] | 3810
[2H]C([2H])([2H])NC(=O)c1nnc2cc1Nc1cc(cc(-c3ccn(C4CC4)n3)c1OC)COCc1cc(F)cc(n1)N2 [Example 94, 11-(1-Cyclopropyl-1H-pyrazol-3-yl)-19-fluoro-10-methoxy-N-(methyl-d3)-15-oxa-2,4,5,8,21-pentaazatetracyclo[15.3.1.1^{3,7}.1^{9,13}]tricosa-1(21),3,5,7(23),9(22),10,12,17,19-nonaene-6-carboxamide] | 293
CCn1ncc2ccc(Nc3ccnc(NC(=O)C4CC4)c3)c(OC)c21 [Example 237, N-(4-((1-ethyl-7-methoxy-1H-indazol-6-yl)amino)pyridin-2-yl)cyclopropanecarboxamide] | 4070
[2H]C([2H])([2H])NC(=O)c1cnc(NC(=O)C2CC2)cc1Nc1csc2c(Cl)cn(C(C)C)c(=O)c12 [Example 175, 4-((7-Chloro-5-isopropyl-4-oxo-4,5-dihydrothieno[3,2-c]pyridin-3-yl)amino)-6-(cyclopropanecarboxamido)-N-(methyl-d3)nicotinamide] | 124
[2H]C([2H])([2H])NC(=O)c1cnc(NC(=O)C2CC2)cc1Nc1cn(C)c2ccn([C@H]3CCOC3)c(=O)c12 [Example 115, 6-(Cyclopropanecarbonylamino)-4-[[1-methyl-4-oxo-5-[(3S)-tetrahydrofuran-3-yl]pyrrolo[3,2-c]pyridin-3-yl]amino]-N-(methyl-d3)pyridine-3-carboxamide] | 1100
[2H]C([2H])([2H])NC(=O)c1cnc(Nc2ccc(C)nn2)nc1Nc1cccc(-c2ncn(C)n2)c1OC [Example 61, 4-((2-Methoxy-3-(1-methyl-1H-1,2,4-triazol-3-yl)phenyl)amino)-N-(methyl-d3)-2-((6-methylpyridazin-3-yl)amino)pyrimidine-5-carboxamide] | 3510
[2H]C([2H])([2H])NC(=O)c1cnc(Nc2ccc(F)cn2)cc1Nc1cn(C)c2c(Cl)cn(CC)c(=O)c12 [Example 160, 4-((7-Chloro-5-ethyl-1-methyl-4-oxo-4,5-dihydro-1H-pyrrolo[3,2-c]pyridin-3-yl)amino)-6-((5-fluoropyridin-2-yl)amino)-N-(methyl-d3)nicotinamide] | 29.7
[2H]C([2H])([2H])NC(=O)c1cnc(NC(=O)[C@H]2C[C@H]2F)cc1Nc1cn(C)c2ccn(CC)c(=O)c12 [Example 101, 4-[(5-Ethyl-1-methyl-4-oxo-pyrrolo[3,2-c]pyridin-3-yl)amino]-6-[[(1R,2R)-2-fluorocyclopropanecarbonyl]amino]-N-(methyl-d3)pyridine-3-carboxamide] | 809
[2H]C([2H])([2H])NC(=O)c1cnc(NC(=O)C2(C(F)(F)F)CC2)cc1Nc1ccc2cnn(CC)c2c1OC [Example 238, 4-((1-Ethyl-7-methoxy-1H-indazol-6-yl)amino)-N-(methyl-d3)-6-(1-(trifluoromethyl)cyclopropane-1-carboxamido)nicotinamide] | > 5000
[2H]C([2H])([2H])NC(=O)c1cnc(NC(=O)C2CC2)cc1Nc1cnn2c1C(=O)N(CC(F)(F)F)CC2 [Example 46, 6-(Cyclopropanecarboxamido)-N-(methyl-d3)-4-((4-oxo-5-(2,2,2-trifluoroethyl)-4,5,6,7-tetrahydropyrazolo[1,5-a]pyrazin-3-yl)amino) nicotinamide] | 372
CCc1nc2c(Nc3cc(NC(=O)C4CC4)ncc3C(=O)NC)cn(C)c2c(=O)n1C [Example 247, 6-(Cyclopropanecarboxamido)-4-((2-ethyl-3,5-dimethyl-4-oxo-4,5-dihydro-3H-pyrrolo[3,2-d]pyrimidin-7-yl)amino)-N-methylnicotinamide] | > 5000
[2H]C([2H])([2H])NC(=O)c1cnc(Nc2ccn(C3CC3)n2)cc1Nc1ccc2cnn(CC)c2c1OC [Example 138, 6-((1-Cyclopropyl-1H-pyrazol-3-yl)amino)-4-((1-ethyl-7-methoxy-1H-indazol-6-yl)amino)-N-(methyl-d3)nicotinamide] | 88.8
CNC(=O)c1cnc(Nc2ccc(F)cc2)nc1Nc1cccc(OC2CCOCC2)c1OC [Example 6, 2-((4-Fluorophenyl)amino)-4-((2-methoxy-3-((tetrahydro-2H-pyran-4-yl)oxy)phenyl)amino)-N-methylpyrimidine-5-carboxamide] | 897
